The values that follow are results of earlier work, collected in patent publication US6585958B1, “Medicinal aerosol formulations” (Jago Research AG, priority 1998, dated 2003).

The conditions of the series: at 20° C.

Consider `FCC(F)(F)F` [HFA 134a, 1,1,1,2-tetrafluoroethane], for which the density result is reported as “about 1.2 mg/ml” and the vapor pressure result is recorded as “about 6 bar”.
With `FC(C(F)(F)F)C(F)(F)F` [HFA 227, 1,1,1,2,3,3,3-heptafluoropropane], the density entry is given as “about 1.4 mg/ml” and the vapor pressure result is “about 4.2 bar”.
